Laboratory results reported in a melting point compilation (Tetko et al.; mined from patent text by program, amines drawn as free bases though some values may be those of a salt).

Point of comparison: `CN(C(=O)c1ccccc1NC(=O)CN1C(=O)c2ccccc2C1=O)c1ccccc1`, melting point 138 °C. Against it:
- N#Cc1c2ccccc2nc2ccc(Cl)cc12 — higher, 208 °C
- CC1(C(=O)c2c[nH]c3ncc(-c4cccc(N5CCCC5)c4)nc23)CCCCCC1 — higher, 192 to 193 °C
- CCCCCC1C=CC(c2ccc(F)c(F)c2)=CC1 (configuration not stated) — lower, 31 °C
- O=C(Nc1cc(-c2nc(-c3ccco3)no2)ccc1Cl)Oc1ccccc1 — higher, 177 to 178 °C
- COc1ccc(C(=O)Nc2cccc3[nH]ccc23)c(OCC2CO2)c1 (configuration not stated) — higher, 157 °C
- CCC(C(=O)O)c1cccc(Oc2ccccc2Cl)c1O (configuration not stated) — higher, 143 to 145 °C
- Nc1ccc(C#Cc2ccc(OC3CN4CCC3CC4)nn2)cc1 (configuration not stated) — higher, 212 to 220 °C
- NC(=O)c1nc(-c2cccc(N)c2)cs1 — higher, 193 to 194 °C
- Cc1c(NC(=O)c2ccc(-c3ccc(F)cc3)cc2)ccc2cc(CN3CCOCC3)cnc12 — higher, 176 to 178 °C
- Cc1ccc(N(Cc2ccccc2)c2ccccc2)cc1 — lower, 85 to 86 °C
- CCN(c1cccc2cc(-c3ncc(COc4ccc(C(=O)OC)cc4)s3)[nH]c12)S(=O)(=O)c1cccs1 — higher, 191 °C
- CC(=O)NCc1ccc(CCN2CCC(n3ccc4ccccc43)CC2)cc1 — lower, 133 to 134 °C
- CCCCc1nc(SC)c(C(=O)O)n1Cc1ccc(-c2ccccc2C(=O)O)cc1 — higher, 220 °C
- Cc1ccccc1-c1c(NC(=O)Nc2ccc(F)cc2F)cnc2cc3c(cc12)CCC3 — higher, 252 to 254 °C
- CCCc1c(CSc2nnc(NC(=O)CC(=O)OCc3ccc(OC)cc3)s2)ccc(C(C)=O)c1O — higher, 162 to 166 °C
- O=Cc1ccc(OCc2ccccc2)c(CCl)n1 — lower, 72 to 73 °C
- CC(C)C[C@@H](C(=O)N1CCN(C(c2ccc(F)cc2)c2ccc(F)cc2)CC1)N(C)C1CCCCC1 — higher, 171 to 182 °C
- Cc1cc(N(C)C)cc(C)c1NC(NCCCCCCCc1ccc(C(C)(C)C)cc1)=C1C(=O)COC1=O — higher, 144 to 147 °C
- NS(=O)(=O)c1ccc(-n2nc(C(F)(F)F)cc2-c2ccc(Cl)cc2)cc1F — higher, 140 to 141 °C
- C=CC(=O)N1C(C)(C)CC(OC(=O)C(C#N)(Cc2cc(C(C)(C)C)c(O)c(C(C)(C)C)c2)Cc2cc(C(C)(C)C)c(O)c(C(C)(C)C)c2)CC1(C)C — higher, 174 °C
- CN1C(=O)CCC2(C)c3ccc(Sc4ccc5ccccc5c4)cc3CCC12 (single isomer, unassigned; (+)) — not separable, 138 to 140 °C
- CCc1oc(-c2ccc(C(F)(F)F)cc2)cc1C=O — lower, 95 to 96 °C
- COC(=O)C1Cc2c([nH]c3ccccc23)C(c2ccc(OC)c(O)c2)N1 (configuration not stated) — higher, 140 to 148 °C
- CCOC(=O)NNS(=O)(=O)c1ccc(C)cc1 — lower, 105 to 106 °C
- Cc1nc(-n2ccc(OCc3ccc(F)cc3)cc2=O)sc1C(=O)NCc1ccccc1 — higher, 243 to 245 °C
- COc1ccc(C(=O)Cc2ccccc2)cc1 — lower, 68 to 69 °C
- CCc1cc2c(s1)SCCc1cc(=O)n(-c3ccc(OC)cc3)nc1-2 — higher, 141 to 143 °C
- COC(=O)CCc1ccc(CNC(=O)C2Cc3ccccc3N2S(=O)(=O)c2ccc(-c3cccc(C(F)(F)F)c3)cc2)cc1 (configuration not stated) — lower, 61 °C
- O=c1ccn(-c2ccc(C(F)(F)F)cc2)nc1-c1ccnn1-c1ccccc1 — higher, 237 to 238 °C
- O=C(O)[C@@H]1C[C@H]2C[C@H](CCS(=O)(=O)O)CC[C@H]2CN1 (racemic) — higher, 265 °C
- CS(=O)(=O)N1CCCC(NC(=O)C(CC2CCCC2)NC(=O)c2ccco2)C(=O)C1 (configuration not stated) — higher, 158 to 161 °C
- N#Cc1ccc(-c2cc3c(O)ncnc3[nH]2)cc1 — higher, > 410 °C
- O=C(c1cc(-c2ccc(F)cc2)c(-c2ccc(F)cc2)[nH]1)C(F)(F)F — higher, 211 to 212 °C
- O=C(c1c[nH]c2cc(F)ccc12)C(F)(F)F — higher, 234 to 235 °C
- CCCc1nc2c(N)nc3cc(-c4cccc(NC(C)=O)c4)ccc3c2s1 — higher, 173 to 176 °C
- Oc1ccc(Cl)c(Cl)c1OCC1CO1 (configuration not stated) — lower, 92 to 94 °C
- CCOCc1nc2c(N)nc3ccccc3c2n1CC1CCN(C)C(=O)O1 (configuration not stated) — higher, 192 to 194 °C
- Cc1cc([N+](=O)[O-])c(C)c2c1OC(C)(C)C2=O — lower, 124 to 126 °C
- COc1cc(C#N)ccc1-c1cc2cc(Cl)c(Cl)cc2[nH]1 — higher, 241 to 244 °C
- CCCCOCCOc1ccc(-c2ccc(N(C)Cc3cnn(C)c3)c(C=C(C)C(=O)O)c2)cc1 — higher, 140 °C
- Cc1ccc(-c2ccccc2-c2n[nH]c(=O)n2C)cc1 — higher, 181 to 182 °C
- CC(=O)Nc1sc2c(c1C(=O)c1ccco1)CCCC2 — lower, 126 to 127 °C
- CCn1ncc2c(NCc3cccc(OC)c3)c3ccccc3nc21 — higher, 260 to 263 °C
- O=C(Nc1cn2cc(Cl)ccc2n1)c1ccc(C2(C(=O)O)CCCCC2)cc1 — higher, 288 °C
- Cn1cc(-c2cc(-c3cnc(N)c(C(F)(F)F)c3)ccn2)n(-c2ccc(C(C)(C)C#N)cc2)c1=O — higher, 195 °C
- O=C(Nc1nccs1)c1nc(-c2cccc3ccccc23)[nH]c1-c1ccc(F)cc1 — higher, 218 to 220 °C
